Assays:
[1] = molecular target: Chymotrypsinogen A (Bos taurus) (UniProt P00766); test: Tested for inhibition of Chymotrypsinogen from bovine
[2] = molecular target: Chymotrypsinogen A (Bos taurus) (UniProt P00766); test: as above; remark: listed apart in the source

IC50 [1] [µM] | IC50 [2] [µM] | SMILES
> 100 | – | CC(C)OC(=O)[C@H](O)[C@H](CC1CCCCC1)NC(=O)[C@H](Cc1c[nH]cn1)NC(=O)[C@@H](CC(=O)N1CCOCC1)Cc1cccc2ccccc12 [4-Cyclohexyl-2-hydroxy-3-[3-(1H-imidazol-4-yl)-2-(4-morpholin-4-yl-2-naphthalen-1-ylmethyl-4-oxo-butyrylamino)-propionylamino]-butyric acid isopropyl ester]
– | > 100 | CC(C)CC(=O)N[C@H](C(=O)N[C@H](C(=O)N[C@@H](CC(C)C)[C@@H](O)CC(=O)N[C@@H](C)C(=O)N[C@@H](CC(C)C)[C@@H](O)CC(=O)O)C(C)C)C(C)C [PEPSTATIN]

— BindingDB's records for doi:10.1021/jm00172a005 (Kissei Pharmaceutical, 1990)
